Data taken from ChEMBL document CHEMBL5113383, “Application of the All-Hydrocarbon Stapling Technique in the Design of Membrane-Active Peptides” (J Med Chem, 2022).
Positions of bridges follow the written chain, without caps; N, C: chain ends. Non-standard residues stand in square brackets, D forms with d. Residues, ends and D or L forms follow the SMILES beside them. *: point of attachment. X2 = C[C@@H]1O[C@H](*)[C@@H](O)[C@H](O)[C@@H]1O; X1 = O[C@H]1[C@H](O)[C@@H](*)OC[C@H]1O; R8 = C=CCCCCCC[C@@](C)(N)C(=O)O; R5 = C=CCCC[C@@](C)(N)C(=O)O; S5 = C=CCCC[C@](C)(N)C(=O)O; Nle = CCCC[C@H](N)C(=O)O; Orn = NCCC[C@H](N)C(=O)O

Assay: Hemolytic activity in human erythrocytes incubated for 1 hr
Type: toxicity, cell-based, Erythrocyte
Settings: for hemolysis at 1 h: read-out: Activity

## CCCC[C@H](NC(=O)[C@H](Cc1cnc[nH]1)NC(=O)[C@H](C)NC(=O)[C@H](CCCC)NC(=O)[C@@H](NC(=O)[C@H](CCCCN)NC(=O)[C@@H]1CCCN1C(=O)[C@H](CC(C)C)NC(=O)[C@@H](NC(=O)[C@H](CCCCN)NC(=O)[C@H](CCCCN)NC(=O)[C@H](CC(C)C)NC(=O)[C@@H](NC(=O)[C@H](CO)NC(=O)[C@H](CC(C)C)NC(=O)[C@H](Cc1ccccc1)NC(=O)CN)[C@@H](C)CC)C(C)C)C(C)C)C(=O)N[C@@H](CCCCN)C(N)=O (H-GFLSILKKVLPKV[Nle]AH[Nle]K-NH2)
  HC50 at 1 h: 50 µM

## CCCC[C@@H]1NC(=O)[C@@](C)(NC(=O)[C@H](CCCCN)NC(=O)[C@@H]2CCCN2C(=O)[C@H](CC(C)C)NC(=O)[C@@H](NC(=O)[C@H](CCCCN)NC(=O)[C@H](CCCCN)NC(=O)[C@H](CC(C)C)NC(=O)[C@@H](NC(=O)[C@H](CO)NC(=O)[C@H](CC(C)C)NC(=O)[C@H](Cc2ccccc2)NC(=O)CN)[C@@H](C)CC)C(C)C)CCC/C=C\CCC[C@@](C)(C(=O)N[C@@H](CCCCN)C(N)=O)NC(=O)[C@H](Cc2cnc[nH]2)NC(=O)[C@H](C)NC1=O (H-GFLSILKKVLPK[S5][Nle]AH[S5]K-NH2; staple (Z) 13-17)
  HC50 at 1 h: 18.1 µM

## CCCC[C@H](NC(=O)[C@H](Cc1cnc[nH]1)NC(=O)[C@H](C)NC(=O)[C@H](CCCC)NC(=O)[C@@H](NC(=O)[C@H](CCCCN)NC(=O)[C@@H]1CCCN1C(=O)[C@H](CC(C)C)NC(=O)[C@@]1(C)CCC/C=C\CCC[C@](C)(NC(=O)[C@H](CO)NC(=O)[C@H](CC(C)C)NC(=O)[C@H](Cc2ccccc2)NC(=O)CN)C(=O)N[C@@H](CC(C)C)C(=O)N[C@@H](CCCCN)C(=O)N[C@@H](CCCCN)C(=O)N1)C(C)C)C(=O)N[C@@H](CCCCN)C(N)=O (H-GFLS[S5]LKK[R5]LPKV[Nle]AH[Nle]K-NH2; staple (Z) 5-9)
  HC50 at 1 h: 14.7 µM

## CCCC[C@@H]1NC(=O)[C@@](C)(NC(=O)[C@H](CCCCN)NC(=O)[C@@H]2CCCN2C(=O)[C@H](CC(C)C)NC(=O)[C@]2(C)CCC/C=C\CCC[C@](C)(NC(=O)[C@H](CO)NC(=O)[C@H](CC(C)C)NC(=O)[C@H](Cc3ccccc3)NC(=O)CN)C(=O)N[C@@H](CC(C)C)C(=O)N[C@@H](CCCN)C(=O)N[C@@H](CCCCN)C(=O)N2)CCC/C=C\CCC[C@@](C)(C(=O)N[C@@H](CCCCN)C(N)=O)NC(=O)[C@H](Cc2cnc[nH]2)NC(=O)[C@H](C)NC1=O (H-GFLS[S5]L[Orn]K[S5]LPK[S5][Nle]AH[S5]K-NH2; staple (Z) 5-9, 13-17)
  HC50 at 1 h: 13.9 µM

## CCCC[C@H](NC(=O)[C@H](Cc1cnc[nH]1)NC(=O)[C@H](C)NC(=O)[C@H](CCCC)NC(=O)[C@@H](NC(=O)[C@H](CCCCN)NC(=O)[C@@H]1CCCN1C(=O)[C@]1(C)CCC/C=C/CCCCCC[C@@](C)(NC(=O)[C@H](Cc2ccccc2)NC(=O)CN)C(=O)N[C@@H](CO)C(=O)N[C@@H]([C@@H](C)CC)C(=O)N[C@@H](CC(C)C)C(=O)N[C@@H](CCCCN)C(=O)N[C@@H](CCCCN)C(=O)N[C@@H](C(C)C)C(=O)N1)C(C)C)C(=O)N[C@@H](CCCCN)C(N)=O (H-GF[R8]SILKKV[S5]PKV[Nle]AH[Nle]K-NH2; staple (E) 3-10)
  HC50 at 1 h: 20 µM

## CCCC[C@H](NC(=O)[C@H](Cc1cnc[nH]1)NC(=O)[C@H](C)NC(=O)[C@H](CCCC)NC(=O)[C@@H](NC(=O)[C@H](CCCCN)NC(=O)[C@@H]1CCCN1C(=O)[C@]1(C)CCC/C=C\CCCCCC[C@@](C)(NC(=O)[C@H](Cc2ccccc2)NC(=O)CN)C(=O)N[C@@H](CO)C(=O)N[C@@H]([C@@H](C)CC)C(=O)N[C@@H](CC(C)C)C(=O)N[C@@H](CCCCN)C(=O)N[C@@H](CCCCN)C(=O)N[C@@H](C(C)C)C(=O)N1)C(C)C)C(=O)N[C@@H](CCCCN)C(N)=O (H-GF[R8]SILKKV[S5]PKV[Nle]AH[Nle]K-NH2; staple (Z) 3-10)
  HC50 at 1 h: 11 µM

## CC[C@H](C)[C@H](NC(=O)CN)C(=O)NCC(=O)N[C@@H](CCCCN)C(=O)N[C@@H](Cc1ccccc1)C(=O)N[C@@H](CC(C)C)C(=O)N[C@@H](Cc1cnc[nH]1)C(=O)N[C@@H](CO)C(=O)N[C@@H](C)C(=O)N[C@@H](CCCCN)C(=O)N[C@@H](CCCCN)C(=O)N[C@@H](Cc1ccccc1)C(=O)NCC(=O)N[C@@H](CCCCN)C(=O)N[C@@H](C)C(=O)N[C@@H](Cc1ccccc1)C(=O)N[C@H](C(=O)NCC(=O)N[C@@]1(C)CCC/C=C\CCC[C@@](C)(C(N)=O)NC(=O)[C@H](CC(N)=O)NC(=O)[C@H](CCSC)NC(=O)[C@H]([C@@H](C)CC)NC1=O)C(C)C (H-GIGKFLHSAKKFGKAFVG[S5]IMN[S5]-NH2; staple (Z) 19-23)
  hemolysis at 1 h: 100%

## CC[C@H](C)[C@H](NC(=O)CN)C(=O)NCC(=O)N[C@@H](CCCCN)C(=O)N[C@@H](Cc1ccccc1)C(=O)N[C@@H](CC(C)C)C(=O)N[C@@H](Cc1cnc[nH]1)C(=O)N[C@@H](CO)C(=O)N[C@@H](C)C(=O)N[C@@H](CCCCN)C(=O)N[C@@H](CCCCN)C(=O)N[C@@H](Cc1ccccc1)C(=O)NCC(=O)N[C@@H](CCCCN)C(=O)N[C@@H](C)C(=O)N[C@@H](Cc1ccccc1)C(=O)N[C@@]1(C)CCC/C=C\CCC[C@@](C)(C(=O)N[C@@H](CC(N)=O)C(=O)N[C@@H](CO)C(N)=O)NC(=O)[C@H]([C@@H](C)CC)NC(=O)[C@H](CCC(=O)O)NC(=O)CNC1=O (H-GIGKFLHSAKKFGKAF[S5]GEI[S5]NS-NH2; staple (Z) 17-21)
  hemolysis at 1 h: < 10%

## CC[C@H](C)[C@H](NC(=O)CN)C(=O)N[C@@H](CCSC)C(=O)N[C@@H](CO[C@H]1OC[C@@H](O)[C@@H](O)[C@@H]1O)C(=O)N[C@@H](CO)C(=O)N[C@@H](CC(C)C)C(=O)N[C@@H](CCSC)C(=O)N[C@@H](CCCCN)C(=O)N[C@@H](CCCCN)C(=O)N[C@@H](CC(C)C)C(=O)N[C@@]1(C)CCC/C=C\CCC[C@@](C)(C(=O)N[C@@H](CCCCN)C(N)=O)NC(=O)[C@H]([C@@H](C)CC)NC(=O)[C@H](Cc2cnc[nH]2)NC(=O)[C@H](C)NC1=O (H-GIMS(X1)SLMKKL[S5]AHI[S5]K-NH2; staple (Z) 11-15)
  HC50 at 1 h: > 400 µM

## CC[C@H](C)[C@H](NC(=O)CN)C(=O)N[C@@H](CCSC)C(=O)N[C@@H](CO[C@H]1O[C@@H](C)[C@@H](O)[C@@H](O)[C@@H]1O)C(=O)N[C@@H](CO)C(=O)N[C@@H](CC(C)C)C(=O)N[C@@H](CCSC)C(=O)N[C@@H](CCCCN)C(=O)N[C@@H](CCCCN)C(=O)N[C@@H](CC(C)C)C(=O)N[C@@]1(C)CCC/C=C\CCC[C@@](C)(C(=O)N[C@@H](CCCCN)C(N)=O)NC(=O)[C@H]([C@@H](C)CC)NC(=O)[C@H](Cc2cnc[nH]2)NC(=O)[C@H](C)NC1=O (H-GIMS(X2)SLMKKL[S5]AHI[S5]K-NH2; staple (Z) 11-15)
  HC50 at 1 h: > 400 µM

## CC[C@H](C)[C@H](NC(=O)[C@H](CCCCN)NC(=O)[C@H](CCCCN)NC(=O)[C@H](Cc1c[nH]c2ccccc12)NC(=O)[C@H](CC(N)=O)NC(=O)[C@@H](N)C(C)C)C(=O)N[C@@H](CC(C)C)C(=O)NCC(=O)N[C@@H](CCCCN)C(=O)N[C@@]1(C)CCC/C=C\CCC[C@@](C)(C(=O)N[C@@H](CCCCN)C(N)=O)NC(=O)[C@H](C(C)C)NC(=O)[C@H](CCCCN)NC(=O)[C@H]([C@@H](C)CC)NC1=O (H-VNWKKILGK[S5]IKV[S5]K-NH2; staple (Z) 10-14)
  HC50 at 1 h: 69 µM

## CC[C@H](C)[C@H](NC(=O)[C@]1(C)CCC/C=C\CCC[C@](C)(NC(=O)[C@H](CCCCN)NC(=O)[C@H](CCCCN)NC(=O)[C@H](Cc2c[nH]c3ccccc23)NC(=O)[C@H](CC(N)=O)NC(=O)[C@@H](N)C(C)C)C(=O)N[C@@H](CC(C)C)C(=O)NCC(=O)N[C@@H](CCCCN)C(=O)N1)C(=O)N[C@@H](CCCCN)C(=O)N[C@H](C(=O)N[C@H](C(=O)N[C@@H](CCCCN)C(N)=O)C(C)C)C(C)C (H-VNWKK[S5]LGK[S5]IKVVK-NH2; staple (Z) 6-10)
  HC50 at 1 h: 31.3 µM
